Laboratory results reported in patent US20250134877A1, “METHODS OF TREATING CANCER DEPENDENT ON MYC GENE EXPRESSSION” (KARTOS THERAPEUTICS, priority 2021, published 2025).

Key:
[1] = system: other members of the CD28 family; conditions: selectivity; cited from earlier work
p21 gene expression [2] = test: Gene expression analysis of PBMC samples from relapsed/refractory myelofibrosis patients: p21; type: in vivo, human; conditions: R/R myelofibrosis patients, 120 mg or 240 mg for 7 days or 240 mg for 5 days, C1D1 pre-dose vs C1D5, C1D6/8, FIG. 1
Description: (§1) FIG. 1 illustrates that the compound of Formula (I) induces p21 and represses Myc in relapsed/refractory myelofibrosis (R/R MF) patients. PBMC samples from the patients were used for the gene expression analyses. fdr.q refers to false discovery rate adjusted significance value for change in normalized gene expression. C1D1 refers to Cycle 1, Day 1. C1D5 refers to Cycle 1, Day 5. C1D6/8 refers to Cycle 1, Day 6 or 8.
(§2) Effects of the compound of Formula (I) were investigated on the gene expression of p21 and Myc in the patients of relapsed/refractory myelofibrosis. In the study, The compound of Formula (I) is administered at 120 mg for 7 days for Cohort 1, 240 mg for 7 days for Cohort 2, 240 mg for 7 days for Cohort 3, and 240 mg for 5 days for Cohort 4.
(§3) The peripheral blood mononuclear cell (PBMC) samples were taken from the patients pre-dosing on day 1 of cycle 1, day 5 of cycle 1, day 6 of cycle 1, and day 8 of cycle 1.

Myc gene expression [3] = test: Gene expression analysis of PBMC samples from relapsed/refractory AML patients: Myc; type: in vivo, human; conditions: R/R AML patients, 120, 180, 240 or 360 mg daily for seven days, C1D1 pre-dose vs C1D5, FIG. 2
Protocol: (§4) FIG. 2 illustrates that the compound of Formula (I) induces p21 and represses Myc in relapsed/refractory acute myeloid leukemia (AML) patients. PBMC samples from the patients were used for the gene expression analyses. C1D1 refers to Cycle 1 Day 1. C1D5 refers to Cycle 1 Day 5.
(§5) Effects of the compound of Formula (I) were investigated on the gene expression of p21 and Myc in the AML patients.
(§6) In dose-escalation phase study, the dosing of the compound of Formula (I) is 120 mg (three patients); 180 mg (2 patients), 240 mg (8 patients), and 360 mg (4 patients) daily for seven days, with different ‘off-treatment’ duration depending on cohort assignments. The peripheral blood mononuclear cell (PBMC) samples were taken from patients pre-dosing on day 1 of cycle 1, and day 5 of cycle 1.

Myc gene expression [4] = test: Gene expression analysis of PBMC samples from relapsed/refractory myelofibrosis patients: Myc; type: in vivo, human; conditions: R/R myelofibrosis patients, 120 mg or 240 mg for 7 days or 240 mg for 5 days, C1D1 pre-dose vs C1D5, C1D6/8, FIG. 1
Description: as §1, §2, §3

p21 gene expression [5] = test: Gene expression analysis of PBMC samples from relapsed/refractory AML patients: p21; type: in vivo, human; conditions: R/R AML patients, 120, 180, 240 or 360 mg daily for seven days, C1D1 pre-dose vs C1D5, FIG. 2
Protocol: as §4, §5, §6

| Molecule | binding to other members of the CD28 family [1] | effect on p21 gene expression (p21 gene expression [2]) | effect on Myc gene expression (Myc gene expression [3]) | effect on Myc gene expression (Myc gene expression [4]) | effect on p21 gene expression (p21 gene expression [5]) |
| --- | --- | --- | --- | --- | --- |
| 5C4: fully human IgG4 antibody blocking the PD-1 receptor; 5C4 in WO 2006/121168 and U.S. Pat. No. 8,008,449 [Formula 5C4] | do not bind |  |  |  |  |
| CC(C)[C@@H](CS(=O)(=O)C(C)C)N1C(=O)[C@@](C)(CC(=O)O)CC(c2cccc(Cl)c2)[C@H]1c1ccc(Cl)cc1 (stereo partly drawn) [Formula (I), 2-((3R,5R,6S)-5-(3-chlorophenyl)-6-(4-chlorophenyl)-1-((S)-1-(isopropylsulfony1)-3-methylbutan-2-y1)-3-methyl-2-oxopiperidin-3-yl) acetic acid] |  | induces | represses | represses | induces |
